We go through one compound from patent publication US11933780B2, “System and method for assessing an effect on cellular units in an organism” (Functional Fluidics Inc., priority 2022, dated 2024).

This test has as its system erythrocytes. Kind of test: percentage of sickling of erythrocytes over time during deoxygenation by the PCA/PCD system. It counts as cell-based. The source says: FIG. 5 is a graph illustrating a percentage of sickled erythrocytes over time for one sample that is exposed to a drug and one that is not.
Referring again to FIG. 3, the method may continue with the step 60 of deoxygenating the supporting medium in the aliquot of sample A and, in certain embodiments, the supporting medium in the aliquot of sample B to induce at least one of a predetermined amount of hypoxia and a predetermined rate of oxygen consumption in each of the supporting mediums. Deoxygenation of the supporting mediums in the aliquots of samples A and B may occur at the same or different times. Deoxygenation may be performed through enzymatic catalysis using enzymatic oxygen scavengers/scrubbers such as glucose oxidase or pyranose oxidase. In a preferred embodiment, deoxygenation is performed through enzymatic catalysis using a reaction substrate comprising protocatechuic acid (PCA) and a reaction enzyme comprising […] (PCD). PCD catalyzes the conversion of PCA and oxygen in the supporting medium in a 1:1 stoichiometry into β-carboxy-cis, cis-muconic acid (CMA). The use of PCA/PCD has a number of advantages relative to other enzymatic catalysis methods and other methods of deoxygenation. […] The use of PCA/PCD can achieve greater levels of hypoxia in the samples relative to some other methods. The use of PCA/PCD can also achieve specific levels of hypoxia as opposed to proceeding to complete hypoxia as in other methods thereby allowing simulation of more specific conditions (e.g., for a particular organ or particular level of hypoxia). Most importantly, the use of PCA/PCD allows accurate control of the rate of oxygen consumption in both the supporting medium and, as a result, the rate of deoxygenation of Hb in embodiments where the cellular unit comprises erythrocytes or extracellular Hb. Conventional methods of deoxygenation assume equilibrium or quasi-equilibrium conditions in which, for example, the rate of Hb deoxygenation occurs […] than the rate of oxygen consumption in the supporting medium. […]

Setting [1] is: FIG. 5, curve 76 vs curve 78, PCA/PCD deoxygenation at the same rate of oxygen consumption.

For `CC(C)n1nccc1-c1ncccc1COc1cccc(O)c1C=O` [voxelotor], the “percentage of sickling of erythrocytes over time” value (FIG. 5, curve 76 (voxelotor) vs curve 78, same erythrocyte-containing sample deoxygenated by PCA/PCD at the same rate of oxygen consumption) is reported as “reduction in sickling”. Also, under setting [1], the delay in sickling result is “longer delay in sickling” and the erythrocyte sickling rate entry was “slower erythrocyte sickling rate”.
